Patent publication US6096930A, “Herbicidal cyclohexane-1,3-dione derivatives and their preparation process” (Korea Research Institute of Chemical Technology, priority 1994, dated 2000)
Like-named read-outs stand apart in the source and are kept apart here.

Tests used:
Assay in all cases: Herbicidal activity for paddy test
Format in all cases: in vivo
[1] = tested on: ECHOR; conditions: for pest or weed control at 2 g/ha: 0.002 kg/ha; for pest or weed control at 8 g/ha: 0.008 kg/ha; for pest or weed control at 31 g/ha: 0.031 kg/ha; for pest or weed control at 125 g/ha: 0.125 kg/ha; for pest or weed control at 500 g/ha: 0.500 kg/ha
Outline: (§1)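 For paddy conditions, species grew in furrows within pots of sterilized sandy loam soil (115 cm^2 surface area), and efficacy was judged by eye as percent control, with 0 meaning no herbicidal effect and 100 meaning total kill.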

[2] = tested on: MOOVA; conditions: for pest or weed control at 2 g/ha: 0.002 kg/ha; for pest or weed control at 8 g/ha: 0.008 kg/ha; for pest or weed control at 31 g/ha: 0.031 kg/ha; for pest or weed control at 125 g/ha: 0.125 kg/ha; for pest or weed control at 500 g/ha: 0.500 kg/ha
Outline: as §1

[3] = tested on: ORYSA; conditions: for plant injury at 2 g/ha: 0.002 kg/ha; for plant injury at 8 g/ha: 0.008 kg/ha; for plant injury at 31 g/ha: 0.031 kg/ha; for plant injury at 125 g/ha: 0.125 kg/ha; for plant injury at 500 g/ha: 0.500 kg/ha
Outline: as §1

[4] = tested on: SAGPY; conditions: for pest or weed control at 2 g/ha: 0.002 kg/ha; for pest or weed control at 8 g/ha: 0.008 kg/ha; for pest or weed control at 31 g/ha: 0.031 kg/ha; for pest or weed control at 125 g/ha: 0.125 kg/ha; for pest or weed control at 500 g/ha: 0.500 kg/ha
Outline: as §1

[5] = tested on: SCPJU; conditions: for pest or weed control at 2 g/ha: 0.002 kg/ha; for pest or weed control at 8 g/ha: 0.008 kg/ha; for pest or weed control at 31 g/ha: 0.031 kg/ha; for pest or weed control at 125 g/ha: 0.125 kg/ha; for pest or weed control at 500 g/ha: 0.500 kg/ha
Outline: as §1

[6] = 3 Leaf, read-out: Herbicidal activity, ORYSA (3 Leaf)
[7] = seed, read-out: Herbicidal activity, ORYSA (seed)

CCON=C(CC)C1=C(O)CC(c2c(C)c(C)c3c(c2Cl)CC(C)(C)C3)CC1=O (stereo not drawn) [Compound 39]
80%: pest or weed control at 8 g/ha [1] | plant injury at 500 g/ha [3, 6]
100%: pest or weed control at 31 g/ha [1] | pest or weed control at 125 g/ha [1] | pest or weed control at 500 g/ha [1] | plant injury at 31 g/ha [3, 7] | plant injury at 125 g/ha [3, 7] | plant injury at 500 g/ha [3, 7]
0%: pest or weed control at 2 g/ha [1] | pest or weed control at 2 g/ha [2] | pest or weed control at 8 g/ha [2] | pest or weed control at 31 g/ha [2] | pest or weed control at 125 g/ha [2] | pest or weed control at 500 g/ha [2] | plant injury at 2 g/ha [3, 6] | plant injury at 8 g/ha [3, 6] | plant injury at 31 g/ha [3, 6] | plant injury at 125 g/ha [3, 6] | plant injury at 2 g/ha [3, 7] | plant injury at 8 g/ha [3, 7] | pest or weed control at 2 g/ha [4] | pest or weed control at 8 g/ha [4] | pest or weed control at 31 g/ha [4] | pest or weed control at 125 g/ha [4] | pest or weed control at 500 g/ha [4] | pest or weed control at 2 g/ha [5] | pest or weed control at 8 g/ha [5] | pest or weed control at 31 g/ha [5] | pest or weed control at 125 g/ha [5] | pest or weed control at 500 g/ha [5]

C=CCON=C(CC)C1=C(O)CC(c2c(C)c(C)c3c(c2Cl)CC(C)(C)C3)CC1=O (stereo not drawn) [Compound 40]
0%: pest or weed control at 2 g/ha [1] | pest or weed control at 8 g/ha [1] | pest or weed control at 31 g/ha [1] | pest or weed control at 2 g/ha [2] | pest or weed control at 8 g/ha [2] | pest or weed control at 31 g/ha [2] | pest or weed control at 125 g/ha [2] | pest or weed control at 500 g/ha [2] | plant injury at 2 g/ha [3, 6] | plant injury at 8 g/ha [3, 6] | plant injury at 31 g/ha [3, 6] | plant injury at 125 g/ha [3, 6] | plant injury at 500 g/ha [3, 6] | plant injury at 2 g/ha [3, 7] | plant injury at 8 g/ha [3, 7] | plant injury at 31 g/ha [3, 7] | plant injury at 125 g/ha [3, 7] | pest or weed control at 2 g/ha [4] | pest or weed control at 8 g/ha [4] | pest or weed control at 31 g/ha [4] | pest or weed control at 125 g/ha [4] | pest or weed control at 500 g/ha [4] | pest or weed control at 2 g/ha [5] | pest or weed control at 8 g/ha [5] | pest or weed control at 31 g/ha [5] | pest or weed control at 125 g/ha [5] | pest or weed control at 500 g/ha [5]
100%: pest or weed control at 125 g/ha [1] | pest or weed control at 500 g/ha [1] | plant injury at 500 g/ha [3, 7]

CCCC(=NOC)C1=C(O)CC(c2c(C)c(C)c3c(c2Cl)CC(C)(C)C3)CC1=O (stereo not drawn) [Compound 42]
100%: pest or weed control at 125 g/ha [1] | pest or weed control at 500 g/ha [1] | plant injury at 125 g/ha [3, 7] | plant injury at 500 g/ha [3, 7]
80%: pest or weed control at 31 g/ha [1]
20%: plant injury at 31 g/ha [3, 7]
0%: pest or weed control at 2 g/ha [1] | pest or weed control at 8 g/ha [1] | pest or weed control at 2 g/ha [2] | pest or weed control at 8 g/ha [2] | pest or weed control at 31 g/ha [2] | pest or weed control at 125 g/ha [2] | pest or weed control at 500 g/ha [2] | plant injury at 2 g/ha [3, 6] | plant injury at 8 g/ha [3, 6] | plant injury at 31 g/ha [3, 6] | plant injury at 125 g/ha [3, 6] | plant injury at 500 g/ha [3, 6] | plant injury at 2 g/ha [3, 7] | plant injury at 8 g/ha [3, 7] | pest or weed control at 2 g/ha [4] | pest or weed control at 8 g/ha [4] | pest or weed control at 31 g/ha [4] | pest or weed control at 125 g/ha [4] | pest or weed control at 500 g/ha [4] | pest or weed control at 2 g/ha [5] | pest or weed control at 8 g/ha [5] | pest or weed control at 31 g/ha [5] | pest or weed control at 125 g/ha [5] | pest or weed control at 500 g/ha [5]
